According to US6479435B1, “Diaryl ethers and processes for their preparation and herbicidal and desiccant compositions containing them” (ISK Americas Incorporated, priority 1997, dated 2002):

What was measured:
Assay type in all cases: in vivo
[1] = system: lambsquarters (Chenopodium album, CHEAL); assay: Post-emerge greenhouse herbicide test, phytotoxicity rating; conditions: Chenopodium album, post-emergence, 336 h, 14 days after application, scale 0-100; for pest or weed control at 63 g/ha: rate 63 g ai/ha; for pest or weed control at 500 g/ha: rate 500 g ai/ha
How it was run: (§1)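 Compounds in acetone with 0.25% v/v non-ionic surfactant were track-sprayed at 187 l/ha over plants at the 2-3 leaf stage, at 63 to 1000 g ai/ha. Pots were bottom-watered. Injury was scored visually 14 days later on a 0-100 scale, where 0 is no damage and 100 is complete plant death.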

[2] = system: green foxtail (Setaria viridis, SETVI); assay: as above; conditions: Setaria viridis, post-emergence, 336 h, 14 days after application, scale 0-100; for pest or weed control at 63 g/ha: rate 63 g ai/ha; for pest or weed control at 500 g/ha: rate 500 g ai/ha
How it was run: as §1

[3] = system: ivyleaf morningglory (Ipomoea hederacea, IPOHE); assay: as above; conditions: Ipomoea, post-emergence, 336 h, 14 days after application, scale 0-100; for pest or weed control at 63 g/ha: rate 63 g ai/ha; for pest or weed control at 500 g/ha: rate 500 g ai/ha
How it was run: as §1

[4] = system: large crabgrass (Digitaria sanguinalis, DIGSA); assay: as above; conditions: Digitaria sanguinalis, post-emergence, 336 h, 14 days after application, scale 0-100; for pest or weed control at 63 g/ha: rate 63 g ai/ha; for pest or weed control at 500 g/ha: rate 500 g ai/ha
How it was run: as §1

[5] = system: sicklepod (Cassia obtusifolia, CASOB); assay: as above; conditions: Senna obtusifolia, post-emergence, 336 h, 14 days after application, scale 0-100; for pest or weed control at 63 g/ha: rate 63 g ai/ha; for pest or weed control at 500 g/ha: rate 500 g ai/ha
How it was run: as §1

[6] = system: barnyardgrass (Echinochloa crusgalli, ECHCG); assay: as above; conditions: Echinochloa crus-galli, post-emergence, 336 h, 14 days after application, scale 0-100; for pest or weed control at 63 g/ha: rate 63 g ai/ha; for pest or weed control at 500 g/ha: rate 500 g ai/ha
How it was run: as §1

[7] = system: redroot pigweed (Amaranthus retroflexus, AMARE); assay: as above; conditions: Amaranthus retroflexus, post-emergence, 336 h, 14 days after application, scale 0-100; for pest or weed control at 63 g/ha: rate 63 g ai/ha; for pest or weed control at 500 g/ha: rate 500 g ai/ha
How it was run: as §1

[8] = system: velvetleaf (Abutilon theophrasti, ABUTH); assay: as above; conditions: Abutilon theophrasti, post-emergence, 336 h, 14 days after application, scale 0-100; for pest or weed control at 63 g/ha: rate 63 g ai/ha; for pest or weed control at 500 g/ha: rate 500 g ai/ha
How it was run: as §1

[9] = system: Johnsongrass (Sorghum halepense, SORHA); assay: as above; conditions: Sorghum halepense, post-emergence, 336 h, 14 days after application, scale 0-100; for pest or weed control at 63 g/ha: rate 63 g ai/ha; for pest or weed control at 500 g/ha: rate 500 g ai/ha
How it was run: as §1

[10] = system: lambsquarters (Chenopodium album, CHEAL); assay: Pre-emerge greenhouse herbicide test, phytotoxicity rating; conditions: Chenopodium album, pre-emergence, 336 h, 14 days after application, rating scale 0-100; for pest or weed control at 125 g/ha: Rate 125 g al/ha; for pest or weed control at 500 g/ha: Rate 500 g al/ha
How it was run: (§2)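 Seeds sown in sandy loam mix one day before track-sprayer application of compounds in acetone at 125–1000 g ai/ha (187 l/ha), then surface-watered to incorporate and bottom-watered. Visual rating 14 days after application on a 0–100 scale (0 = no damage, 100 = all plants dead).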

[11] = system: green foxtail (Setaria viridis, SETVI); assay: as above; conditions: Setaria viridis, pre-emergence, 336 h, 14 days after application, rating scale 0-100; for pest or weed control at 125 g/ha: Rate 125 g al/ha; for pest or weed control at 500 g/ha: Rate 500 g al/ha
How it was run: as §2

[12] = system: ivyleaf morningglory (Ipomoea hederacea, IPOHE); assay: as above; conditions: Ipomoea, pre-emergence, 336 h, 14 days after application, rating scale 0-100; for pest or weed control at 125 g/ha: Rate 125 g al/ha; for pest or weed control at 500 g/ha: Rate 500 g al/ha
How it was run: as §2

[13] = system: redroot pigweed (Amaranthus retroflexus, AMARE); assay: as above; conditions: Amaranthus retroflexus, pre-emergence, 336 h, 14 days after application, rating scale 0-100; for pest or weed control at 125 g/ha: Rate 125 g al/ha; for pest or weed control at 500 g/ha: Rate 500 g al/ha
How it was run: as §2

[14] = system: velvetleaf (Abutilon theophrasti, ABUTH); assay: as above; conditions: Abutilon theophrasti, pre-emergence, 336 h, 14 days after application, rating scale 0-100; for pest or weed control at 125 g/ha: Rate 125 g al/ha; for pest or weed control at 500 g/ha: Rate 500 g al/ha
How it was run: as §2

[15] = system: Johnsongrass (Sorghum halepense, SORHA); assay: as above; conditions: Sorghum halepense, pre-emergence, 336 h, 14 days after application, rating scale 0-100; for pest or weed control at 125 g/ha: Rate 125 g al/ha; for pest or weed control at 500 g/ha: Rate 500 g al/ha
How it was run: as §2

## Nn1c(C(F)(F)F)cc(=O)n(-c2cc(Oc3cccc(Cl)n3)c(Cl)cc2F)c1=O [Compound 9-5, 1-Amino-3-[4-chloro-2-fluoro-5-(6-chloro-2-pyridyloxy)phenyl]-6-trifluoromethyl-1,2,3,4-tetrahydropyrimidine-2,4-dione]
[1]
  pest or weed control at 63 g/ha: 90%
  pest or weed control at 500 g/ha: 100%
[2]
  pest or weed control at 63 g/ha: 30%
  pest or weed control at 500 g/ha: 90%
[3]
  pest or weed control at 63 g/ha: 100%
  pest or weed control at 500 g/ha: 90%
[4]
  pest or weed control at 63 g/ha: 0%
  pest or weed control at 500 g/ha: 80%
[5]
  pest or weed control at 63 g/ha: 100%
  pest or weed control at 500 g/ha: 100%
[6]
  pest or weed control at 63 g/ha: 20%
  pest or weed control at 500 g/ha: 100%
[7]
  pest or weed control at 63 g/ha: 100%
  pest or weed control at 500 g/ha: 100%
[8]
  pest or weed control at 63 g/ha: 90%
  pest or weed control at 500 g/ha: 100%
[9]
  pest or weed control at 63 g/ha: 50%
  pest or weed control at 500 g/ha: 100%
[10]
  pest or weed control at 125 g/ha: 100%
  pest or weed control at 500 g/ha: 100%
[11]
  pest or weed control at 125 g/ha: 100%
  pest or weed control at 500 g/ha: 100%
[12]
  pest or weed control at 125 g/ha: 70%
  pest or weed control at 500 g/ha: 50%
[13]
  pest or weed control at 125 g/ha: 100%
  pest or weed control at 500 g/ha: 100%
[14]
  pest or weed control at 125 g/ha: 100%
  pest or weed control at 500 g/ha: 100%
[15]
  pest or weed control at 125 g/ha: 95%
  pest or weed control at 500 g/ha: 100%

## Nn1c(C(F)(F)F)cc(=O)n(-c2cc(Oc3nc(F)c(F)cc3F)c(Cl)cc2F)c1=O [Compound 9-6, 1-Amino-3-[4-chloro-2-fluoro-5-(3,5,6-trifluoro-2-pyridyloxy)phenyl]-6-trifluoromethyl-1,2,3,4-tetrahydropyrimidine-2,4-dione]
[1]
  pest or weed control at 63 g/ha: 100%
  pest or weed control at 500 g/ha: 100%
[2]
  pest or weed control at 63 g/ha: 20%
  pest or weed control at 500 g/ha: 100%
[3]
  pest or weed control at 63 g/ha: 100%
  pest or weed control at 500 g/ha: 100%
[4]
  pest or weed control at 63 g/ha: 90%
  pest or weed control at 500 g/ha: 100%
[5]
  pest or weed control at 63 g/ha: 40%
  pest or weed control at 500 g/ha: 100%
[6]
  pest or weed control at 63 g/ha: 90%
  pest or weed control at 500 g/ha: 100%
[7]
  pest or weed control at 63 g/ha: 100%
  pest or weed control at 500 g/ha: 100%
[8]
  pest or weed control at 63 g/ha: 100%
  pest or weed control at 500 g/ha: 100%
[9]
  pest or weed control at 63 g/ha: 100%
  pest or weed control at 500 g/ha: 100%
[10]
  pest or weed control at 125 g/ha: 100%
  pest or weed control at 500 g/ha: 100%
[11]
  pest or weed control at 125 g/ha: 100%
  pest or weed control at 500 g/ha: 100%
[12]
  pest or weed control at 125 g/ha: 90%
  pest or weed control at 500 g/ha: 95%
[13]
  pest or weed control at 125 g/ha: 100%
  pest or weed control at 500 g/ha: 100%
[14]
  pest or weed control at 125 g/ha: 100%
  pest or weed control at 500 g/ha: 100%
[15]
  pest or weed control at 125 g/ha: 90%
  pest or weed control at 500 g/ha: 90%

## Nn1c(C(F)(F)F)cc(=O)n(-c2cc(Oc3ncccc3C(F)(F)F)c(Cl)cc2F)c1=O [Compound 9-7, 1-Amino-3-[4-chloro-2-fluoro-5-(3-trifluoromethyl-2-pyridyloxy)phenyl]-6-trifluoromethyl-1,2,3,4-tetrahydropyrimidine-2,4-dione]
[1]
  pest or weed control at 63 g/ha: 100%
  pest or weed control at 500 g/ha: 100%
[2]
  pest or weed control at 63 g/ha: 40%
  pest or weed control at 500 g/ha: 70%
[3]
  pest or weed control at 63 g/ha: 100%
  pest or weed control at 500 g/ha: 100%
[4]
  pest or weed control at 63 g/ha: 10%
  pest or weed control at 500 g/ha: 30%
[5]
  pest or weed control at 63 g/ha: 90%
  pest or weed control at 500 g/ha: 90%
[6]
  pest or weed control at 63 g/ha: 60%
  pest or weed control at 500 g/ha: 70%
[7]
  pest or weed control at 63 g/ha: 100%
  pest or weed control at 500 g/ha: 100%
[8]
  pest or weed control at 63 g/ha: 100%
  pest or weed control at 500 g/ha: 100%
[9]
  pest or weed control at 63 g/ha: 80%
  pest or weed control at 500 g/ha: 90%
[10]
  pest or weed control at 125 g/ha: 100%
  pest or weed control at 500 g/ha: 100%
[11]
  pest or weed control at 125 g/ha: 100%
  pest or weed control at 500 g/ha: 100%
[12]
  pest or weed control at 125 g/ha: 70%
  pest or weed control at 500 g/ha: 100%
[13]
  pest or weed control at 125 g/ha: 100%
  pest or weed control at 500 g/ha: 100%
[14]
  pest or weed control at 125 g/ha: 100%
  pest or weed control at 500 g/ha: 100%
[15]
  pest or weed control at 125 g/ha: 90%
  pest or weed control at 500 g/ha: 100%
